Laboratory results: ChEMBL document CHEMBL3616474, “Synthesis of arabinose glycosyl sulfamides as potential inhibitors of mycobacterial cell wall biosynthesis” (2015)
Values after ≈ are worked out from the molar mass of the structure shown.

The compounds below were run on Mycolicibacterium smegmatis (assay: Antimicrobial activity against Mycobacterium smegmatis incubated for 18 hrs by Alamar blue assay).
Assay type: functional

| Structure (SMILES) | MIC90 |
| --- | --- |
| CCCCCCNS(=O)(=O)N[C@H]1OC[C@@H](O)[C@@H](O)[C@@H]1O | > 1000 mg/L |
| CCCCCCCCNS(=O)(=O)N[C@H]1OC[C@@H](O)[C@@H](O)[C@@H]1O | 500 mg/L (≈ 1470 µM) |
| CCCCCCCCCCNS(=O)(=O)N[C@H]1OC[C@@H](O)[C@@H](O)[C@@H]1O | 62 mg/L (≈ 168 µM) |
| CCCCCCCCCCCCNS(=O)(=O)N[C@H]1OC[C@@H](O)[C@@H](O)[C@@H]1O | 250 mg/L (≈ 630 µM) |
| CCCCCCCCCCCCCCNS(=O)(=O)N[C@H]1OC[C@@H](O)[C@@H](O)[C@@H]1O | > 1000 mg/L |
| CCCCCCN(CCCCCC)S(=O)(=O)N[C@H]1OC[C@@H](O)[C@@H](O)[C@@H]1O | 125 mg/L (≈ 315 µM) |
| CCCCCCCCCCN(CCCCCCCCCC)S(=O)(=O)N[C@H]1OC[C@@H](O)[C@@H](O)[C@@H]1O | > 1000 mg/L |
| O=S(=O)(NCCOCCO)N[C@H]1OC[C@@H](O)[C@@H](O)[C@@H]1O | > 1000 mg/L |
| O=S(=O)(NCCOCCOCCO)N[C@H]1OC[C@@H](O)[C@@H](O)[C@@H]1O | > 1000 mg/L |
| O=S(=O)(NCCOCCOCCOCCO)N[C@H]1OC[C@@H](O)[C@@H](O)[C@@H]1O | > 1000 mg/L |

The next lines start with the values.

| MIC90 | Structure (SMILES) |
| --- | --- |
| 500 mg/L (≈ 2120 µM) | CCCCCCCCCCNS(N)(=O)=O |
| 500 mg/L (≈ 1100 µM) | CCCCCCCCN(CCCCCCCC)S(=O)(=O)N[C@H]1OC[C@@H](O)[C@@H](O)[C@@H]1O |
| > 1000 mg/L | CCCCCCCCCCCCN(CCCCCCCCCCCC)S(=O)(=O)N[C@H]1OC[C@@H](O)[C@@H](O)[C@@H]1O |
| 125 mg/L (≈ 339 µM) | CC(C)CCCC(C)CCNS(=O)(=O)N[C@H]1OC[C@@H](O)[C@@H](O)[C@@H]1O (stereo not given in full) |
| 4 mg/L (≈ 29.2 µM) | NNC(=O)c1ccncc1 [ISONIAZID] |
